The results in this text go back to patent publication US20130059907A1, “WOGONIN-CONTAINING PHARMACEUTICAL COMPOSITION FOR INHIBITING CANCER STEM CELLS GROWTH AND APPLICATION THEREOF” (National Taiwan Normal University, priority 2011, published 2013).

For assay [1], the system named is A549 cells. Nature of the assay: MTT assay (cell proliferation), A549. The format is cell-based. The note with it: FIG. 1B. The method, then: NSCLC cell lines A549, NCI-H460, NCI-H520 and normal lung cell line MRCS were obtained from Bioresource Collection and Research Center (BCRC, Taiwan). A549 cell line was cultured with F12K medium (21127, GIBCO, Carlsbad, U.S.A.). Both NCI-H460 and NCI-H520 cell lines were cultured with RPMI1640 medium (23400, GIBCO, Carlsbad, U.S.A.). MRCS cell line was cultured with MEM medium (41500, GIBCO, Carlsbad, U.S.A.). All media mentioned above contained 10% FBS (10437, GIBCO, Carlsbad, U.S.A.). All cultures were maintained in an incubator (Thermo forma 370, Waltham, U.S.A.) with 5% CO2 at 37° C.
Cells were seeded at 1×10^4 cells per well in a 24-well plate for 16 hours. After that, a sample such as the wogonin solutions with different concentrations and the extract of S. baicalensis (denoted as “SB”) was added into 24-well plate directly, and cultured at 37° C. for 24, 48, and 72 hours, respectively.
Thiazolyl blue tetrazolium bromide (MTT, m5655, Sigma, St. Louis, U.S.A.) solution was prepared in a concentration of 5.5 mg/ml with phosphate buffered saline (PBS) filtered by 0.22 μm membrane. The MTT solution (50 μl) was added to the wells of 24-well plates with A549, NCI-H460, NCI-H520, and MRCS cell lines cultured after 24, 48, and 72 hours. The plates were incubated at 37° C. for 2 hours and then moved out. The media of the wells were removed. […]

Assay [2] relates to A549 cells. Briefly: Side population analysis (Hoechst33342, with or without reserpine). It is filed as cell-based. The note with it: A549, dose of IC50, 48 hours, FIGS. 5A and 5B. The protocol:
A549 cells were seeded in the number of about 3×10^5 in 10 cm dish to give adequate number of cells for analysis. The cells were treated with the extract of S. baicalensis and the wogonin solution in the dose of IC50 for 48 hours. Then, the treated cells were harvested by typsinization and centrifugation. The harvested cells were re-suspended in the number of 1×10^6 cells/ml in culture medium containing 2% FBS, Hoechst33342 dye (5 μg/ml, Invitrogen, Carlsbad, U.S.A.) was added with or without reserpine (50 μM, Sigma, St. Louis, U.S.A.) as a blocking reagent. The cells were further incubated at 37° C. for 2 hours under frequently gentle vortex to ensure uniform staining, and then washed with PBS. PI staining (20 ng/ml) was used to determine the live/dead cells. In order to set up the fluorescence compensation, single staining and non-staining groups were prepared. The cell samples were filtered with nylon mesh (35 μm) to prevent cell aggregation. PI-positive dead cells were primary excluded to avoid false positive signals. Then, the Hoechst blue and red dot plotting was used to determine the side population. A gate of a side population was defined by the diminishing region of two samples groups, i.e. with or without reserpine. The percentages of the side population were further analyzed by Flowjo software (TreeStar, Ashland, U.S.A.).

Take `COc1c(O)cc(O)c2c(=O)cc(-c3ccccc3)oc12` [wogonin solution, wogonin hydrate]: the “inhibition of A549 cell line (concentration dependence)” value in assay [1] (A549, 40, 80, 120, and 160 μM, 48 hours) is “increased as the concentration of the wogonin solution increases”. The IC50 in assay [1] (Homo sapiens, A549, 48 hours, read-out: half maximal inhibitory concentration (IC50)) was roughly 85 µM. In addition, the “side population (SP)” value in assay [2] is “significantly diminished”.
